According to ChEMBL document CHEMBL5465560, “Selectivity Literature for EUbOPEN Chemogenomic Library” (2024):
Where a chain is given by its changes, count along the chain named.

Experiments:
[1] = test system: T1, Receptor-type tyrosine-protein kinase FLT3 (Homo sapiens), P36888 [K663Q]; assay: (§1) Selectivity interaction (KinomeScan (DiscoverX)) EUB0000595a FLT3; conditions: at 10 µM
T1 sequence (whole entry): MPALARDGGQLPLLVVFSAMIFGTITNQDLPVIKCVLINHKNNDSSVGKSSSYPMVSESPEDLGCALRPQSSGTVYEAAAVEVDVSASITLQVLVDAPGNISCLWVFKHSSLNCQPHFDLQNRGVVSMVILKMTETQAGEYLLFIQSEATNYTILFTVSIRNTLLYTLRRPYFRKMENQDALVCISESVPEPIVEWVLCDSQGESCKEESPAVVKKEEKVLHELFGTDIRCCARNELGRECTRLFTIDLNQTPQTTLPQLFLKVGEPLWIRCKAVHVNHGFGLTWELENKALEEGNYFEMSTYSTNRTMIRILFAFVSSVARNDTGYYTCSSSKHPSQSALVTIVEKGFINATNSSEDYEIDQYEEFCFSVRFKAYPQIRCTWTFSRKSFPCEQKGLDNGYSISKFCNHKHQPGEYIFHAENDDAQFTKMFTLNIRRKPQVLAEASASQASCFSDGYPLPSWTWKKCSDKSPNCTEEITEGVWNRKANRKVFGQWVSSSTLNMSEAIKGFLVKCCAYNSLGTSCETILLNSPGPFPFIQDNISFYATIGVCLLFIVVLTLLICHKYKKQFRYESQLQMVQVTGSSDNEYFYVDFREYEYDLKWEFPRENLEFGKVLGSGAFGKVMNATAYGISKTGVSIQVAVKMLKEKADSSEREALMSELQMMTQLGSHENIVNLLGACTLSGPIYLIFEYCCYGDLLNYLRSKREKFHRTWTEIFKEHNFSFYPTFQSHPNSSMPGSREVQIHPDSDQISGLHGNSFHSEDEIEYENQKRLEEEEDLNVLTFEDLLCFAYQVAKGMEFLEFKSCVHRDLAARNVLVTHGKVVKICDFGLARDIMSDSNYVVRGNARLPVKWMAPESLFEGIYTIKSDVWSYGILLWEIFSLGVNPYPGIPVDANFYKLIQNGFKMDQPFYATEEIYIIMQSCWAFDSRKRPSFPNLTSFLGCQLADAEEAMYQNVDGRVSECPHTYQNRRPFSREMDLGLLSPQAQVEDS

[2] = test system: T2, Receptor-type tyrosine-protein kinase FLT3 (Homo sapiens), P36888 [R834Q]; assay: as §1; conditions: at 10 µM
T2 sequence (whole entry): T1 sequence (whole entry) with Q663K, R834Q

[3] = test system: Receptor-type tyrosine-protein kinase FLT3 (Homo sapiens), P36888 [UNDEFINED MUTATION]; assay: as §1; conditions: at 10 µM
[4] = target: Histone-lysine N-methyltransferase PRDM9 (Homo sapiens) (UniProt Q9NQV7); assay: Selectivity interaction (Methyltransferase screen (Scintillation proximity assays)) EUB0000255b PRDM9
[5] = target: Tyrosine-protein kinase Lck (Homo sapiens, UniProt P06239)
[6] = target: T3, Mitogen-activated protein kinase 12 (Homo sapiens) (UniProt P53778); assay: Selectivity interaction (ProQinase) EUB0000171b MAPK12
T3 sequence (whole entry): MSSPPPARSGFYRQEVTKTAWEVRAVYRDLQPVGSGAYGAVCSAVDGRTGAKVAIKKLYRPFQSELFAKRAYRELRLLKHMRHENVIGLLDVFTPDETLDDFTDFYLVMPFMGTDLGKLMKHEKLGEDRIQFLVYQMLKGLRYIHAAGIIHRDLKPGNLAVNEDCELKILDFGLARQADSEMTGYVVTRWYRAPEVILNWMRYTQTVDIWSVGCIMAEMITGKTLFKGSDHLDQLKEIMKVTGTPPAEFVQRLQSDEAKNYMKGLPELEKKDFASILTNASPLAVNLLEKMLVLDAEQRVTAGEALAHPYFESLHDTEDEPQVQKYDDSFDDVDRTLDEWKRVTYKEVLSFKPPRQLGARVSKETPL

[7] = target: Mitogen-activated protein kinase kinase kinase 11 (Homo sapiens) (UniProt Q16584); assay: Selectivity interaction (ProQinase) EUB0000171b MAP3K11
Sequence of Mitogen-activated protein kinase kinase kinase 11 (Homo sapiens) (Q16584 whole entry, looked up): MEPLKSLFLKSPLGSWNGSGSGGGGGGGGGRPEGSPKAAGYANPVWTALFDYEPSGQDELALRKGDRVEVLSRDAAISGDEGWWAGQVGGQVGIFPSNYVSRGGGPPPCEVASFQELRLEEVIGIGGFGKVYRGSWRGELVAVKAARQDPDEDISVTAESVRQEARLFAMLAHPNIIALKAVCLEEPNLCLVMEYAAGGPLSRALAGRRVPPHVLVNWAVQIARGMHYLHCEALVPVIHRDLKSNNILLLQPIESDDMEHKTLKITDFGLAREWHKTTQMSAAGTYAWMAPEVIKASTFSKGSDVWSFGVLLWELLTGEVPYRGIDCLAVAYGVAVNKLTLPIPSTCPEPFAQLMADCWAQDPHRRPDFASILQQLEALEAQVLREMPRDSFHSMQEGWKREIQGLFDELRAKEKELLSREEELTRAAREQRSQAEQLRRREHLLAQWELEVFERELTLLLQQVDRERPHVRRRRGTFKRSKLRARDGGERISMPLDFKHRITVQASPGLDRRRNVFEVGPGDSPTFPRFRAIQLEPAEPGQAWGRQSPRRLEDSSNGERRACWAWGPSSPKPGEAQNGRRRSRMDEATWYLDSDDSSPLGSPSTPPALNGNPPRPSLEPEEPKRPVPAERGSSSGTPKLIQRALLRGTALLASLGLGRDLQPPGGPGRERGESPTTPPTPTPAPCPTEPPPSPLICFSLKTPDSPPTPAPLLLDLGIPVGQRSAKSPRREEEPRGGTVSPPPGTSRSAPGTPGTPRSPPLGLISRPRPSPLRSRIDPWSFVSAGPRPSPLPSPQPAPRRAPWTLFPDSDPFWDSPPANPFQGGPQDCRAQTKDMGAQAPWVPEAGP

Sequence of Histone-lysine N-methyltransferase PRDM9 (Homo sapiens) (Q9NQV7 whole entry): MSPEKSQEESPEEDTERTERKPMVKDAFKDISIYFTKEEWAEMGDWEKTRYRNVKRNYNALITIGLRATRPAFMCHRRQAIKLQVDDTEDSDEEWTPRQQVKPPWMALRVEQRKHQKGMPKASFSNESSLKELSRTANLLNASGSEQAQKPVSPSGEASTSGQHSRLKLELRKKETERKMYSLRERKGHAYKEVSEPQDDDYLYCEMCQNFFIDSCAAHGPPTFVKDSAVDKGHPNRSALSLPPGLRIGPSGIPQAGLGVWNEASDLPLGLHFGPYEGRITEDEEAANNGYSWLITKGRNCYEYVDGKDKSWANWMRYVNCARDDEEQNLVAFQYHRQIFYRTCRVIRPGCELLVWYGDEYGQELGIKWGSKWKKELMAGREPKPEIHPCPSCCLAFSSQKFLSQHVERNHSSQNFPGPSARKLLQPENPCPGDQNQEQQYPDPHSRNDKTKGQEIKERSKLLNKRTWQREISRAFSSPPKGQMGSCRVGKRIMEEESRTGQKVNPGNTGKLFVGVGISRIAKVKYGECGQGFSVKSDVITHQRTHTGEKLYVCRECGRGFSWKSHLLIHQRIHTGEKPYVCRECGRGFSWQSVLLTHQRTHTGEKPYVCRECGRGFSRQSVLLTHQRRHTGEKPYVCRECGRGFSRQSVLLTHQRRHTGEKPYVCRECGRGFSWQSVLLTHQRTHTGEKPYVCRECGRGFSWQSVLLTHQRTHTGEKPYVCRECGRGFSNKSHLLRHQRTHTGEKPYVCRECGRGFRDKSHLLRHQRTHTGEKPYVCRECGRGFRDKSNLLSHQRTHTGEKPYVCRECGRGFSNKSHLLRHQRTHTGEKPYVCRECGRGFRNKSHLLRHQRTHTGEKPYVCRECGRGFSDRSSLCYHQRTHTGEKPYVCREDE
Sequence of Tyrosine-protein kinase Lck (P06239 whole entry): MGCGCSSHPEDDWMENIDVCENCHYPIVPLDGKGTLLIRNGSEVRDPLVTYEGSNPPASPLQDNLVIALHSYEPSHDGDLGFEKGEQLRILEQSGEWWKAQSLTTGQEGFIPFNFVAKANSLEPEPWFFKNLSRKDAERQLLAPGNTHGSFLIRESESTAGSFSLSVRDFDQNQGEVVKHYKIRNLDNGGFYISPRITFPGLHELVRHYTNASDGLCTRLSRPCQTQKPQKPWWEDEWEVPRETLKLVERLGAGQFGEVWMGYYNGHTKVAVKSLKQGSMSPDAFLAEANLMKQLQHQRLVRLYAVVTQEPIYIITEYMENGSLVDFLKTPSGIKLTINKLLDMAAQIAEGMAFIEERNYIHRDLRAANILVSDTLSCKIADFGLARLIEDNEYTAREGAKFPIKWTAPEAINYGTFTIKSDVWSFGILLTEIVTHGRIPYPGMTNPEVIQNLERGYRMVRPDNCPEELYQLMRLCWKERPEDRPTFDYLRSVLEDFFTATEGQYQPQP

Compound COCC(=O)NC/C=C/c1ccc2ncnc(Nc3ccc(Oc4ccc(C)nc4)c(C)c3)c2c1 [CP-724714] has a % of control [1] of 79%, a % of control [2] of 100% and a % of control [3] of 87%.

Work on COCCN1CCC(c2cc(CN(C)C(=O)c3cccc(Oc4ccccc4)c3)ccn2)CC1 yielded a % activity ([4]; at 1 µM) greater than 95% and a % activity ([4]; at 10 µM) greater than 90%.

In the case of CCc1cccc(CC)c1NC(=O)c1nn(C)c2c1CCc1cnc(Nc3ccc(C(=O)NC4CCN(C)CC4)cc3OC(F)(F)F)nc1-2, the IC50 [5] is reported as greater than 10 µM.

C=CC(=O)Nc1cccc(C(=O)Nc2ccc(Nc3cc(-c4[nH]c(SC)nc4C)ccn3)cc2)c1 showed a % of control ([6]; at 1 µM) of 94%, a % of control ([6]; at 5 µM) of 87% and a % of control ([7]; at 1 µM) of 28%. It also gave a % of control ([7]; at 5 µM) of 13%.
